Results taken from US20150231236A1, “METHODS FOR TREATING PATIENTS WITH HYPERCHOLESTEROLEMIA THAT IS NOT ADEQUATELY CONTROLLED BY MODERATE-DOSE STATIN THERAPY” (Regeneron Pharmaceuticals, Inc., priority 2014, published 2015).

Tests used:
[1] = tested on: patients with hypercholesterolemia at high CV risk not adequately controlled with atorvastatin (20 mg or 40 mg); assay: Example 2: randomized, double-blind trial, lipid efficacy of mAb316P add-on to atorvastatin vs EZE add-on, atorvastatin dose doubling or switch to rosuvastatin; type: in vivo, human; settings: for reduced LDL-C levels by: week 24, add-on mAb316P
Procedure, shortened: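 Patients on atorvastatin 20 or 40 mg randomized to mAb316P 75 mg SC Q2W (raised to 150 mg from week 12 per CV risk) or blinded comparators, over 24 weeks. Endpoint: percent change in calculated LDL-C (Friedewald; beta quantification if TG >400 mg/dL) from baseline to week 24.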

[2] = tested on: patients with hypercholesterolemia at high CV risk not adequately controlled with rosuvastatin (10 mg or 20 mg); assay: Example 3: safety, treatment-emergent adverse events in pooled treatment groups; settings: mAb316P group
[3] = ITT Population, Comparison 1: mAb316P + atorva 20 mg arm vs. atorva 40 mg arm
[4] = ITT Population, Comparison 2: mAb316P + atorva 20 mg arm vs. EZE + atorva 20 mg arm
[5] = ITT Population, Comparison 3: mAb316P + atorva 40 mg arm vs. atorva 80 mg arm
[6] = ITT Population, Comparison 4: mAb316P + atorva 40 mg arm vs. rosuva 40 mg arm
[7] = ITT Population, Comparison 5: mAb316P + atorva 40 mg arm vs. EZE + atorva 40 mg arm
[8] = mITT Population, Comparison 1: mAb316P + atorva 20 mg arm vs. atorva 40 mg arm
[9] = mITT Population, Comparison 2: mAb316P + atorva 20 mg arm vs. EZE + atorva 20 mg arm
[10] = mITT Population, Comparison 3: mAb316P + atorva 40 mg arm vs. atorva 80 mg arm
[11] = mITT Population, Comparison 4: mAb316P + atorva 40 mg arm vs. rosuva 40 mg arm
[12] = mITT Population, Comparison 5: mAb316P + atorva 40 mg arm vs. EZE + atorva 40 mg arm

mAb316P: human anti-PCSK9 antibody; heavy chain SEQ ID NO:5, light chain SEQ ID NO:9
Delta, percent change from baseline of Apo B to week 24 [1, 3]: −29.3%
Delta, percent change from baseline of Apo-B to week 12 [1, 3]: −31.5%
Delta, percent change from baseline of HDL-C to week 24 [1, 3]: 2.9%
Delta, percent change from baseline of Lp(a) to week 24 [1, 3]: −3.4%
Delta, percent change from baseline of Non-HDL-C to week 12 [1, 3]: −33.5%
Delta, percent change from baseline of Total-C to week 12 [1, 3]: −22.6%
Delta, percent change from baseline of Total-C to week 24 [1, 3]: −23.1%
Delta, percent change from baseline of calculated LDL-C to week 12 [1, 3]: −39.8%
Delta, percent change from baseline of calculated LDL-C to week 24 [1, 3]: −39.1%
Delta, percent change from baseline of non-HDL-C to week 24 [1, 3]: −30.4%
Odds Ratio, proportion of patients reaching calculated LDL-C < 70 mg/dL at Week 24 [1, 3]: 28.9
Odds Ratio, proportion of very high CV risk patients reaching calculated LDL-C < 70 mg/dL or high CV risk patients reaching calculated LDL-C < 100 mg/dL at Week 24 [1, 3]: 16.3
Delta, percent change from baseline of Apo B to week 24 [1, 4]: −23.6%
Delta, percent change from baseline of Apo-B to week 12 [1, 4]: −25.3%
Delta, percent change from baseline of HDL-C to week 24 [1, 4]: 4.9%
Delta, percent change from baseline of Lp(a) to week 24 [1, 4]: −13.0%
Delta, percent change from baseline of Non-HDL-C to week 12 [1, 4]: −23.4%
Delta, percent change from baseline of Total-C to week 12 [1, 4]: −15.8%
Delta, percent change from baseline of Total-C to week 24 [1, 4]: −15.8%
Delta, percent change from baseline of calculated LDL-C to week 12 [1, 4]: −25.8%
Delta, percent change from baseline of calculated LDL-C to week 24 [1, 4]: −23.6%
Delta, percent change from baseline of non-HDL-C to week 24 [1, 4]: −21.6%
Odds Ratio, proportion of patients reaching calculated LDL-C < 70 mg/dL at Week 24 [1, 4]: 4.7
Odds Ratio, proportion of very high CV risk patients reaching calculated LDL-C < 70 mg/dL or high CV risk patients reaching calculated LDL-C < 100 mg/dL at Week 24 [1, 4]: 3.7
Delta, percent change from baseline of Apo B to week 24 [1, 5]: −38.4%
Delta, percent change from baseline of Apo-B to week 12 [1, 5]: −26.7%
Delta, percent change from baseline of HDL-C to week 24 [1, 5]: 2.9%
Delta, percent change from baseline of Lp(a) to week 24 [1, 5]: −21.1%
Delta, percent change from baseline of Non-HDL-C to week 12 [1, 5]: −29.3%
Delta, percent change from baseline of Total-C to week 12 [1, 5]: −19.1%
Delta, percent change from baseline of Total-C to week 24 [1, 5]: −28.9%
Delta, percent change from baseline of calculated LDL-C to week 12 [1, 5]: −36.0%
Delta, percent change from baseline of calculated LDL-C to week 24 [1, 5]: −49.2%
Delta, percent change from baseline of non-HDL-C to week 24 [1, 5]: −41.1%
Odds Ratio, proportion of patients reaching calculated LDL-C < 70 mg/dL at Week 24 [1, 5]: 116.8
Odds Ratio, proportion of very high CV risk patients reaching calculated LDL-C < 70 mg/dL or high CV risk patients reaching calculated LDL-C < 100 mg/dL at Week 24 [1, 5]: 92.5
Delta, percent change from baseline of Apo B to week 24 [1, 6]: −30.9%
Delta, percent change from baseline of Apo-B to week 12 [1, 6]: −22.2%
Delta, percent change from baseline of HDL-C to week 24 [1, 6]: 2.0%
Delta, percent change from baseline of Lp(a) to week 24 [1, 6]: −25.9%
Delta, percent change from baseline of Non-HDL-C to week 12 [1, 6]: −22.5%
Delta, percent change from baseline of Total-C to week 12 [1, 6]: −15.4%
Delta, percent change from baseline of Total-C to week 24 [1, 6]: −21.9%
Delta, percent change from baseline of calculated LDL-C to week 12 [1, 6]: −27.3%
Delta, percent change from baseline of calculated LDL-C to week 24 [1, 6]: −32.6%
Delta, percent change from baseline of non-HDL-C to week 24 [1, 6]: −30.2%
Odds Ratio, proportion of patients reaching calculated LDL-C < 70 mg/dL at Week 24 [1, 6]: 13.2
Odds Ratio, proportion of very high CV risk patients reaching calculated LDL-C < 70 mg/dL or high CV risk patients reaching calculated LDL-C < 100 mg/dL at Week 24 [1, 6]: 6.1
Delta, percent change from baseline of Apo B to week 24 [1, 7]: −27.6%
Delta, percent change from baseline of Apo-B to week 12 [1, 7]: −15.9%
Delta, percent change from baseline of HDL-C to week 24 [1, 7]: 5.6%
Delta, percent change from baseline of Lp(a) to week 24 [1, 7]: −31.0%
Delta, percent change from baseline of Non-HDL-C to week 12 [1, 7]: −14.8%
Delta, percent change from baseline of Total-C to week 12 [1, 7]: −9.8%
Delta, percent change from baseline of Total-C to week 24 [1, 7]: −18.4%
Delta, percent change from baseline of calculated LDL-C to week 12 [1, 7]: −20.9%
Delta, percent change from baseline of calculated LDL-C to week 24 [1, 7]: −31.4%
Delta, percent change from baseline of non-HDL-C to week 24 [1, 7]: −26.6%
Odds Ratio, proportion of patients reaching calculated LDL-C < 70 mg/dL at Week 24 [1, 7]: 9.9
Odds Ratio, proportion of very high CV risk patients reaching calculated LDL-C < 70 mg/dL or high CV risk patients reaching calculated LDL-C < 100 mg/dL at Week 24 [1, 7]: 7.9
patients achieving the more stringent LDL-C goal of <70 mg/dL ([1]; Week 24, calculated LDL-C, across atorvastatin 20 mg and 40 mg regimens): 77-79%
reduced LDL-C levels by ([1]; atorvastatin 20 mg regimen, add-on ezetimibe or doubling of atorvastatin dose): 44.1%
reduced LDL-C levels by ([1]; atorvastatin 40 mg regimen, add-on ezetimibe, doubling of atorvastatin dose or switch to rosuvastatin 40 mg): 54.0%
Delta, percent change from baseline of Apo B to week 24 [1, 8]: −32.6%
Delta, percent change from baseline of calculated LDL-C to week 12 [1, 8]: −44.5%
Delta, percent change from baseline of calculated LDL-C to week 24 [1, 8]: −42.5%
Delta, percent change from baseline of non-HDL-C to week 24 [1, 8]: −33.0%
Odds Ratio, proportion of patients reaching calculated LDL-C < 70 mg/dL at Week 24 [1, 8]: 28.8
Odds Ratio, proportion of very high CV risk patients reaching calculated LDL-C < 70 mg/dL or high CV risk patients reaching calculated LDL-C < 100 mg/dL at Week 24 [1, 8]: 24.6
Delta, percent change from baseline of Apo B to week 24 [1, 9]: −25.1%
Delta, percent change from baseline of calculated LDL-C to week 12 [1, 9]: −26.6%
Delta, percent change from baseline of calculated LDL-C to week 24 [1, 9]: −24.9%
Delta, percent change from baseline of non-HDL-C to week 24 [1, 9]: −22.4%
Odds Ratio, proportion of patients reaching calculated LDL-C < 70 mg/dL at Week 24 [1, 9]: 4.8
Odds Ratio, proportion of very high CV risk patients reaching calculated LDL-C < 70 mg/dL or high CV risk patients reaching calculated LDL-C < 100 mg/dL at Week 24 [1, 9]: 5.0
Delta, percent change from baseline of Apo B to week 24 [1, 10]: −38.3%
Delta, percent change from baseline of calculated LDL-C to week 12 [1, 10]: −36.3%
Delta, percent change from baseline of calculated LDL-C to week 24 [1, 10]: −52.8%
Delta, percent change from baseline of non-HDL-C to week 24 [1, 10]: −43.6%
Odds Ratio, proportion of patients reaching calculated LDL-C < 70 mg/dL at Week 24 [1, 10]: 162.1
Odds Ratio, proportion of very high CV risk patients reaching calculated LDL-C < 70 mg/dL or high CV risk patients reaching calculated LDL-C < 100 mg/dL at Week 24 [1, 10]: 130.8
Delta, percent change from baseline of Apo B to week 24 [1, 11]: −29.8%
Delta, percent change from baseline of calculated LDL-C to week 12 [1, 11]: −27.7%
Delta, percent change from baseline of calculated LDL-C to week 24 [1, 11]: −35.0%
Delta, percent change from baseline of non-HDL-C to week 24 [1, 11]: −32.1%
Odds Ratio, proportion of patients reaching calculated LDL-C < 70 mg/dL at Week 24 [1, 11]: 19.8
Odds Ratio, proportion of very high CV risk patients reaching calculated LDL-C < 70 mg/dL or high CV risk patients reaching calculated LDL-C < 100 mg/dL at Week 24 [1, 11]: 8.5
Delta, percent change from baseline of Apo B to week 24 [1, 12]: −26.4%
Delta, percent change from baseline of calculated LDL-C to week 12 [1, 12]: −20.2%
Delta, percent change from baseline of calculated LDL-C to week 24 [1, 12]: −33.4%
Delta, percent change from baseline of non-HDL-C to week 24 [1, 12]: −27.3%
Odds Ratio, proportion of patients reaching calculated LDL-C < 70 mg/dL at Week 24 [1, 12]: 13.9
Odds Ratio, proportion of very high CV risk patients reaching calculated LDL-C < 70 mg/dL or high CV risk patients reaching calculated LDL-C < 100 mg/dL at Week 24 [1, 12]: 10.8
TEAE influenza [2]: 4 patients
TEAE upper respiratory tract infection [2]: 6 patients
TEAE urinary tract infection [2]: 4 patients
